Results on two molecules are retold here after patent US11085050B2, “Elite event EE-GH7 and methods and kits for identifying such event in biological samples” (BASF AGRICULTURAL SOLUTIONS SEED, US LLC, priority 2016, dated 2021).

Series [1] relates to commercial cotton cultivars comprising EE-GH7. As to the kind of experiment: Herbicide tolerance after introgression of EE-GH7 into commercial cotton cultivars. The class given is in vivo, cotton (Gossypium hirsutum). The settings on record: EE-GH7 introgressed by repeated back-crossing into commercial cultivars. An excerpt: This confirms the status of event EE-GH7 as an elite event.

The subject of a further series is plants comprising EE-GH7. As to the kind of experiment: Field tolerance of plants comprising EE-GH7 to IFT, glyphosate and combinations. The class given is in vivo, cotton (Gossypium hirsutum). How it is done: Tolerance of plants comprising EE-GH7 to IFT, to glyphosate and to combinations thereof, was tested at different locations in the field. […] Currently available data appear to indicate a performance which is at least equal to, or better than the performance of plants comprising EE-GH7 over plants comprising the hppd and epsps chimeric genes as described in WO2013/026740.

As to `CS(=O)(=O)c1cc(C(F)(F)F)ccc1C(=O)c1cnoc1C1CC1` [IFT, (5-cyclopropyl-4-isoxazolyl)[2-(methylsulfonyl)-4-(trifluoromethyl)phenyl]methanone], the “Expression of the transgene as determined by herbicide tolerance” value in series [1] is recorded as “meets commercially acceptable levels”. For the same molecule, the “Tolerance of plants comprising EE-GH7 to the herbicide” value in the series with plants comprising EE-GH7 (different locations, IFT alone, in particular applied before emergence) is reported as “good tolerance”.

With `O=C(O)CNCP(=O)(O)O` [glyphosate], the “Expression of the transgene as determined by herbicide tolerance” value in series [1] is “meets commercially acceptable levels”. The “Tolerance of plants comprising EE-GH7 to the herbicide” value in the series on plants comprising EE-GH7 (applied post emergence) is listed as “good tolerance”. Besides, the “Glyphosate tolerance of plants comprising EE-GH7 compared with elite glyphosate tolerant event EE-GH3” value in the series on plants comprising EE-GH7 (versus EE-GH3 of WO2007/017186) was “equal to or better than”.
